In patent US20030170858A1, “Gyrase inhibitors and uses thereof” (priority 2001, published 2003):

Molecular target: E. coli gyrase A2B2 (Escherichia coli, UniProt P0AES6)
Test: E. coli gyrase A2B2 ATPase assay
Type: biochemical
Conditions: 40 nM Gyr A2B2 from E coli, 0.9 mM ATP, 30° C., read-out: Activity against E. coli gyrase (Ki)
Procedure: The ATP hydrolysis activity of DNA gyrase was measured by coupling the production of ADP through pyruvate kinase/lactate dehydrogenase to the oxidation of NADH. This method has been described previously. (Tamura and Gellert, 1990, J. Biol. Chem. 265, 21342-21349).
ATPase assays were carried out at 30° C. in buffered solutions containing 100 mM TRIS pH 7.6, 1.5 mM MgCl2, and 150 mM KCl. The coupling system contained (final concentrations) 2.5 mM phosphoenol pyruvate, 200 μM nicotinamide adenine dinucleotide (NADH), 1 mM DTT, 30 ug/ml pyruvate kinase, and 10 ug/ml lactate dehydrogenase. 40 nM enzyme (374 kDa Gyr A2B2 from E coli) and a DMSO solution of the inhibitor to a final concentration of 4% were added and the reaction mixture allowed to incubate for 10 minutes at 30° C. The reaction was then started by the addition of ATP to a final concentration of 0.9 mM and the rate of NADH disappearance at 340 nm, measured over the course of 10 minutes. Ki values were determined from rate versus. inhibitor concentration profiles.

CCOC(=O)c1cc(-c2sc(-c3cccnc3)nc2CN2CCNCC2)n[nH]1 [IA-67]
Ki: 500 to 1500 nM
